Measurements reported in PubChem BioAssay (NCI).
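1) Cells in 96-well plates. 2) Compound, 48 h, 5 concentrations. 3) Linear interpolation between surrounding doses. 4) Unreached endpoint = highest concentration. TGI marks complete inhibition of growth.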

How the values were obtained:
Experiment in all cases: NCI-60 cell line screen, 48 h
[1] = test system: IGROV1 ovarian
[2] = test system: SW-620 colon
[3] = test system: SK-MEL-28 melanoma
[4] = test system: DLD-1 colon
[5] = test system: DMS 114 small cell lung
[6] = test system: OVCAR-8 ovarian
[7] = test system: RPMI-8226 leukemia
[8] = test system: HCT-116 colon
[9] = test system: SK-MEL-5 melanoma
[10] = test system: A498 renal
[11] = test system: SF-268 CNS
[12] = test system: A549 NSCLC
[13] = test system: SN12C renal
[14] = test system: SK-OV-3 ovarian
[15] = test system: RXF 393 renal
[16] = test system: ACHN renal
[17] = test system: MALME-3M melanoma
[18] = test system: SNB-19 CNS
[19] = test system: NCI-H522 lung
[20] = test system: KM12 colon
[21] = test system: HCC-2998 colon
[22] = test system: CAKI-1 renal
[23] = test system: COLO 205 colon
[24] = test system: M19-MEL melanoma
[25] = test system: LXFL 529 NSCLC
[26] = test system: SK-MEL-2 melanoma
[27] = test system: NCI-H226 lung
[28] = test system: LOX IMVI melanoma
[29] = test system: HL-60(TB) leukemia
[30] = test system: HOP-92 NSCLC
[31] = test system: UO-31 renal
[32] = test system: NCI-H460 lung
[33] = test system: CCRF-CEM leukemia
[34] = test system: OVCAR-4 ovarian
[35] = test system: OVCAR-5 ovarian
[36] = test system: OVCAR-3 ovarian
[37] = test system: NCI-H23 lung
[38] = test system: UACC-257 melanoma
[39] = test system: TK-10 renal
[40] = test system: K-562 leukemia
[41] = test system: U251 CNS
[42] = test system: KM20L2 colon
[43] = test system: 786-0 renal
[44] = test system: HOP-62 NSCLC
[45] = test system: MOLT-4 leukemia
[46] = test system: M14 melanoma
[47] = test system: SNB-78 CNS
[48] = test system: UACC-62 melanoma
[49] = test system: EKVX NSCLC
[50] = test system: SF-295 CNS
[51] = test system: SNB-75 CNS
[52] = test system: SR leukemia
[53] = test system: HT29 colon
[54] = test system: SF-539 CNS
[55] = test system: DMS 273 small cell lung
[56] = test system: HOP-18 NSCLC
[57] = test system: HCT-15 colon
[58] = test system: XF 498 CNS

NC(=O)c1ncn(C2OC(CO)C(O)C2O)c1NC(=S)NC(=O)c1ccccc1 (configuration not stated)
TGI [1]: > 100 µM
TGI [2]: > 100 µM
TGI [3]: > 100 µM
TGI [4]: > 100 µM
TGI [5]: > 100 µM
TGI [6]: > 100 µM
TGI [7]: > 100 µM
TGI [8]: > 100 µM
TGI [9]: > 100 µM
TGI [10]: > 100 µM
TGI [11]: > 100 µM
TGI [12]: > 100 µM
TGI [13]: > 100 µM
TGI [14]: > 100 µM
TGI [15]: > 100 µM
TGI [16]: > 100 µM
TGI [17]: > 100 µM
TGI [18]: > 100 µM
TGI [19]: > 100 µM
TGI [20]: > 100 µM
TGI [21]: > 100 µM
TGI [22]: > 100 µM
TGI [23]: > 100 µM
TGI [24]: > 100 µM
TGI [25]: > 100 µM
TGI [26]: > 100 µM
TGI [27]: > 100 µM
TGI [28]: > 100 µM
TGI [29]: > 100 µM
TGI [30]: > 100 µM
TGI [31]: > 100 µM
TGI [32]: > 100 µM
TGI [33]: > 100 µM
TGI [34]: > 100 µM
TGI [35]: > 100 µM
TGI [36]: > 100 µM
TGI [37]: > 100 µM
TGI [38]: > 100 µM
TGI [39]: > 100 µM
TGI [40]: > 100 µM
TGI [41]: > 100 µM
TGI [42]: > 100 µM
TGI [43]: > 100 µM
TGI [44]: > 100 µM
TGI [45]: > 100 µM
TGI [46]: > 100 µM
TGI [47]: > 100 µM
TGI [48]: > 100 µM
TGI [49]: > 100 µM
TGI [50]: > 100 µM
TGI [51]: > 100 µM
TGI [52]: > 100 µM
TGI [53]: > 100 µM
TGI [54]: > 100 µM
TGI [55]: > 100 µM

O=c1/c(=C/c2ccc3c(c2)OCO3)sc2nnc(Cc3ccccc3)n12
TGI [1]: > 100 µM
TGI [2]: > 100 µM
TGI [3]: > 100 µM
TGI [4]: > 100 µM
TGI [5]: > 100 µM
TGI [6]: > 100 µM
TGI [7]: > 100 µM
TGI [8]: > 100 µM
TGI [9]: > 100 µM
TGI [10]: > 100 µM
TGI [11]: > 100 µM
TGI [12]: > 100 µM
TGI [13]: > 100 µM
TGI [14]: > 100 µM
TGI [15]: > 100 µM
TGI [16]: > 100 µM
TGI [17]: > 100 µM
TGI [18]: > 100 µM
TGI [56]: > 100 µM
TGI [19]: > 100 µM
TGI [20]: > 100 µM
TGI [21]: > 100 µM
TGI [22]: > 100 µM
TGI [23]: > 100 µM
TGI [24]: > 100 µM
TGI [25]: > 100 µM
TGI [26]: > 100 µM
TGI [27]: > 100 µM
TGI [28]: > 100 µM
TGI [29]: > 100 µM
TGI [30]: > 100 µM
TGI [57]: > 100 µM
TGI [31]: > 100 µM
TGI [32]: > 100 µM
TGI [33]: > 100 µM
TGI [34]: > 100 µM
TGI [35]: > 100 µM
TGI [36]: > 100 µM
TGI [37]: > 100 µM
TGI [38]: > 100 µM
TGI [39]: > 100 µM
TGI [40]: > 100 µM
TGI [41]: > 100 µM
TGI [42]: > 100 µM
TGI [43]: > 100 µM
TGI [44]: > 100 µM
TGI [45]: > 100 µM
TGI [46]: > 100 µM
TGI [47]: > 100 µM
TGI [48]: > 100 µM
TGI [49]: > 100 µM
TGI [50]: > 100 µM
TGI [51]: > 100 µM
TGI [54]: > 100 µM
TGI [55]: > 100 µM

CC1(C)Oc2ccccc2N2O[C@@H]3C(=O)N(c4ccccc4)C(=O)[C@@H]3C21c1ccccc1 (some centres not stated)
TGI [1]: > 100 µM
TGI [2]: > 100 µM
TGI [3]: 85 µM
TGI [4]: 65.7 µM
TGI [5]: 62.9 µM
TGI [7]: > 100 µM
TGI [8]: 59.7 µM
TGI [9]: 44.3 µM
TGI [10]: 47.3 µM
TGI [11]: > 100 µM
TGI [12]: 48.4 µM
TGI [14]: 41 µM
TGI [15]: 60.8 µM
TGI [17]: 42.5 µM
TGI [18]: 38.1 µM
TGI [56]: 49.1 µM
TGI [19]: 93.2 µM
TGI [20]: > 100 µM
TGI [21]: > 100 µM
TGI [22]: 60.8 µM
TGI [23]: > 100 µM
TGI [24]: 72.5 µM
TGI [25]: > 100 µM
TGI [26]: 53.3 µM
TGI [27]: > 100 µM
TGI [31]: > 100 µM
TGI [32]: > 100 µM
TGI [33]: > 100 µM
TGI [34]: 34.1 µM
TGI [35]: > 100 µM
TGI [36]: 47 µM
TGI [37]: > 100 µM
TGI [38]: 78.7 µM
TGI [39]: 33.1 µM
TGI [40]: > 100 µM
TGI [41]: 69.1 µM
TGI [42]: > 100 µM
TGI [43]: 30.3 µM
TGI [44]: 31.5 µM
TGI [45]: > 100 µM
TGI [46]: 46.4 µM
TGI [47]: 79.4 µM
TGI [48]: 87.8 µM
TGI [49]: > 100 µM
TGI [50]: 32.2 µM
TGI [51]: 35.3 µM
TGI [53]: 68.5 µM
TGI [54]: 31.7 µM

Cc1cc(N(CCC#N)CCC#N)ccc1/C=C/C(=O)Nc1ccccc1Cl
TGI [1]: > 100 µM
TGI [2]: > 100 µM
TGI [3]: > 100 µM
TGI [4]: > 100 µM
TGI [5]: > 100 µM
TGI [6]: > 100 µM
TGI [7]: > 100 µM
TGI [8]: > 100 µM
TGI [9]: > 100 µM
TGI [10]: > 100 µM
TGI [11]: > 100 µM
TGI [12]: > 100 µM
TGI [13]: > 100 µM
TGI [14]: > 100 µM
TGI [16]: > 100 µM
TGI [17]: > 100 µM
TGI [18]: > 100 µM
TGI [19]: > 100 µM
TGI [20]: > 100 µM
TGI [21]: > 100 µM
TGI [22]: > 100 µM
TGI [23]: > 100 µM
TGI [24]: > 100 µM
TGI [25]: > 100 µM
TGI [26]: > 100 µM
TGI [27]: > 100 µM
TGI [28]: > 100 µM
TGI [29]: > 100 µM
TGI [30]: > 100 µM
TGI [57]: > 100 µM
TGI [31]: > 100 µM
TGI [32]: > 100 µM
TGI [33]: > 100 µM
TGI [34]: > 100 µM
TGI [35]: > 100 µM
TGI [36]: > 100 µM
TGI [37]: > 100 µM
TGI [38]: > 100 µM
TGI [39]: > 100 µM
TGI [40]: > 100 µM
TGI [41]: > 100 µM
TGI [58]: > 100 µM
TGI [42]: > 100 µM
TGI [43]: > 100 µM
TGI [44]: > 100 µM
TGI [45]: > 100 µM
TGI [46]: > 100 µM
TGI [48]: > 100 µM
TGI [49]: > 100 µM
TGI [50]: > 100 µM
TGI [51]: > 100 µM
TGI [53]: > 100 µM
TGI [54]: > 100 µM
TGI [55]: > 100 µM
